On the set-up of data set [1]: method as in Xu et al., 2019. To be noted: ref Xu et al., 2019; cited from earlier work.
The target of the next data set is T1, CYP2B6 (Homo sapiens, UniProt P20813).
T1 sequence (P20813 1-491): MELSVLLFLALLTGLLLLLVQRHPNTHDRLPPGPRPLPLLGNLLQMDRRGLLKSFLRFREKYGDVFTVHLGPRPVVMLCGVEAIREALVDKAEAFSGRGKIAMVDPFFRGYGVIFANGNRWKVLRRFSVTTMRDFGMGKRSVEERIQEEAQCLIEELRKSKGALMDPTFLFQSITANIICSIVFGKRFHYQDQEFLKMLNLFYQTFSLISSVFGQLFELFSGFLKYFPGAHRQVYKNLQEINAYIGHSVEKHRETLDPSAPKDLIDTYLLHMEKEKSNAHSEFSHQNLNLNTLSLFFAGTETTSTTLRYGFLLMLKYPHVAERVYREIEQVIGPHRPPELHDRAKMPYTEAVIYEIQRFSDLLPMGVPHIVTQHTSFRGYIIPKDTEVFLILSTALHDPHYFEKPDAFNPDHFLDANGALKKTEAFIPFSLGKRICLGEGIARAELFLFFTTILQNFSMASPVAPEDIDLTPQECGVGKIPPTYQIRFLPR
Kind of data set: Direct CYP inhibition in human liver microsomes with marker probe substrates. The class given is in vitro ADME. Particulars: HLM, CYP2B6 probe substrate. How it is done: (§1) The direct inhibition potential of TBI-166 against P450 was determined using the human marker probe reactions for P450 enzymes in human liver microsomes. Briefly, substrate concentrations in the incubation mixture were selected to be around their Km. Eight different concentrations of TBI-166 (from 0.05 to 10 μM) were incubated in human liver microsomes respectively. Incubations were carried out at 37°C in a shaking water bath. The incubation mixtures contained HLM (0.5 mg/mL), probe substrates in the presence or absence of TBI-166 in PBS (100 mM, containing MgCl2 3 mM, pH 7.4). The reactions were initiated by adding NADPH (1 mM) after preincubated the above mixtures at 37°C for 5 min. Positive controls without TBI-166 were included simultaneously. Stock solutions of the test drugs were prepared in acetonitrile. All measurements were performed in triplicate. […] Protein was removed by centrifugation at 4,000 g for 20 min and analyzed by LC-MS/MS ([Li Z. et al., 2019]).
(§2) Metabolites of probe substrates were separated using a Gemini C18 column (2.1 × 50 mm, i. d, […] particle size; United States). […] The analytes and internal standard were detected by positive ion spray in the multiple-reaction-monitoring modes (MRM).
(§3) IC50 values were calculated using nonlinear regression analysis with GraphPad Prism 7 (GraphPad Software Inc., San Diego, CA). […] All data are expressed as the mean ± SD. […]

The target in a further data set is T2, CYP2J2 (Homo sapiens, UniProt P51589).
T2 sequence (P51589 1-502): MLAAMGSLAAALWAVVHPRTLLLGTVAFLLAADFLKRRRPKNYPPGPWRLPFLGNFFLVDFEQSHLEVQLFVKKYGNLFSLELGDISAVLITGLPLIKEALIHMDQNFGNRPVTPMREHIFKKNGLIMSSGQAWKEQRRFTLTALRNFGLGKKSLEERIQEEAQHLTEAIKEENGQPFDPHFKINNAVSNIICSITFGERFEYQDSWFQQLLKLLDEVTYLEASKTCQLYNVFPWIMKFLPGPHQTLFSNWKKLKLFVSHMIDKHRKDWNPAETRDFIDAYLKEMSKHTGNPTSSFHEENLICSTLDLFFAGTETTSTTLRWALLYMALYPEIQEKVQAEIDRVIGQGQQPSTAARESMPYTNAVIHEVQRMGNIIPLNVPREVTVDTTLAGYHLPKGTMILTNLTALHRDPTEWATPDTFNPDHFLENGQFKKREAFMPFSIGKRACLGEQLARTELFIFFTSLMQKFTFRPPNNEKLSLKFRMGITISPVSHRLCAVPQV
The description is as above. The class given is in vitro ADME. Particulars: HLM, CYP2J2 probe substrate. How it is done: as §1, §2, §3

Data set [2] can be described thus: Steady-state plasma pharmacokinetics of BDQ, M2 and TBI-166 in BALB/c mice. To be noted: for AUC(0-t): Plasma; for t 1/2: after last dose.
Setting [3] is: plasma, TBI-166 group (TBI-166 alone).

Where only a bound is given, the exact number is not on record here.

Consider one molecule from PMC10582325 (Frontiers in Pharmacology, 2023).

As usually defined, the IC50 is the concentration at which inhibition is half-maximal. Higher therefore signals weaker potency. As usually defined, the AUC(0-t) is the area under the concentration-time curve up to a stated or last time point.

Take `COc1ncccc1Nc1cc2nc3ccccc3n(-c3ccc(OC(F)(F)F)cc3)c-2cc1=NC1CCC(OC)CC1` (stereo not drawn) [TBI-166, Pyrifazimine]: in data set [1], the “concentration in liver tissue” value is 32.28 µg/mL. In addition, the half-inhibitory concentration (IC50) is 4.35 µM on CYP2B6 and above 50 µM against CYP2J2. In addition, the “C max, p.o. dosage” value in data set [2] (Cmax observed at human equivalent dose of 20 mg, plasma, mice) amounted to 0.70 µg/mL. The “AUC(0-t)” value came to 62.05 ± 2.52 µg·h/mL in data set [2] (BDQ + TBI-166 group (Table S4)) and 68.95 ± 4.84 µg·h/mL in data set [2] (TBI-166 group (Table S4)). The “AUC(0-last)” value in data set [2] (plasma, BDQ + TBI-166 group) is reported as 62,050 ± 2,519 h·ng/mL; in data set [2] (setting [3]) it was 68,953 ± 4,843 h·ng/mL. Also, the “AUC(0-last) as percent of single-drug group” value is given as 91% in data set [2] (plasma, BDQ + TBI-166 group) and 100% in data set [2] (plasma, TBI-166 group (reference)). The “AUC(0-∞)” value in data set [2] (plasma, BDQ + TBI-166 group) is 103,720 h·ng/mL; in data set [2] (setting [3]), 119,114 h·ng/mL. For the same molecule, the C max in data set [2] (plasma, BDQ + TBI-166 group) was 709.45 ± 71.13 ng/mL; in data set [2] (setting [3]) it was 1,043.84 ± 92.53 ng/mL. Further, the “MRT(0-t)” value in data set [2] (plasma, BDQ + TBI-166 group) was determined as 65.18 h; in data set [2] (setting [3]), 66.37 h. Also, the T max was found to be 1 h in data set [2] (plasma, BDQ + TBI-166 group) and 1 h in data set [2] (setting [3]). The “t 1/2” value turned out to be 132.67 h in data set [2] (plasma, BDQ + TBI-166 group (BDQ 25 mg/kg + TBI-166 20 mg/kg, gavage QD 21 days)) and 142.03 h in data set [2] (plasma, TBI-166 group (TBI-166 20 mg/kg alone, gavage QD 21 days)). In addition, in data set [2] (read-out: C max, p.o. dosage, Cmax observed at human equivalent dose of 20 mg, plasma, mice), the Cmax is 1190 nM.
